Laboratory results: patent US10799561B2, “Method for increasing cardiac inflow by administering a compound that binds RXFP1” (Relaxera Pharmazeutische Gesellschaft GmbH & Co. KG, priority 2014, dated 2020)
Entries after “also recorded” stand apart in the source; their conditions may differ. Ends that are not written are not given here.

Experiments:
[1] = target: T1, RXFP1 (Homo sapiens, UniProt Q9HBX9); test: cAMP reporter gene assay in HEK-293T cells stably expressing RXFP1; format: cell-based; details: in words
T1 construct: expressed in transfected cells; host or cells: HEK-293T cells stably transfected with RXFP1
T1 sequence (Q9HBX9 1-757): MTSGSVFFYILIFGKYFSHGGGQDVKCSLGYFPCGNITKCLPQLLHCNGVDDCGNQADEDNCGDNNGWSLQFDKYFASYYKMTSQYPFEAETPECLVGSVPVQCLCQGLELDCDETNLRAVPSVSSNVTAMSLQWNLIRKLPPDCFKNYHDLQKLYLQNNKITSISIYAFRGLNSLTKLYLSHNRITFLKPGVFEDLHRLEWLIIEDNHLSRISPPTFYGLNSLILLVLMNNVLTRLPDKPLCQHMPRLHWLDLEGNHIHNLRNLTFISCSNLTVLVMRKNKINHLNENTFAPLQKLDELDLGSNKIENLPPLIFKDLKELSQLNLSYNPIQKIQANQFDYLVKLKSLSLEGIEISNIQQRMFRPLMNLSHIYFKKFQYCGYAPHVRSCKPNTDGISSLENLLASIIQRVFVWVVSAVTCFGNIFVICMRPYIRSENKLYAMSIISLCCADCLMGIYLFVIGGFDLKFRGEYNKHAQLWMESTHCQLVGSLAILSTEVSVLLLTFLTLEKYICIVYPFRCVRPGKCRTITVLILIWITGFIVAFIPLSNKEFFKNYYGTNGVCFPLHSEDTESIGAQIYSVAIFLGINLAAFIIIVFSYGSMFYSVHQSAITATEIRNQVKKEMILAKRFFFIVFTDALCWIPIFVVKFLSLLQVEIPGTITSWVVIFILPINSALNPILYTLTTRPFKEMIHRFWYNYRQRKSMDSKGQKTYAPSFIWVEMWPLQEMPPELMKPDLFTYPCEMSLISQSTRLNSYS
Protocol: Stimulation of the RXFP1 receptor results in the activation of adenylate cyclase and therefore in an increase in cAMP. […] Each concentration point was performed in triplicate and peptides were tested in at least three independent experiments. Data were analyzed with GraphPad Prism 4.0 (GraphPad Software, San Diego, Calif., USA), and a nonlinear regression sigmoidal dose-response (variable slope) model was used to plot curves and calculate pEC50 values.

[2] = tested on: mice with diastolic heart failure and controls; test: subcutaneous infusion of relaxin in mice with diastolic dysfunction; format: in vivo
Protocol: The present inventors have therefore used an animal model for testing the treatment for DHF and of a stiffened heart muscle having insufficient relaxation and distensibility. The table below summarizes data obtained in mice with a type of diastolic heart failure as compared with controls. The subcutaneous infusion of isolated porcine relaxin over 12 weeks in mice (50 μg porcine relaxin/kg/d) decreased end-diastolic pressure and, consequently, improved E/A ratio, a functional parameter indicating the quality of ventricular filling. The subcutaneous infusion of relaxin was obtained by implanting in the neck portion of the mice a membrane capsule releasing continuously porcine relaxin.

[3] = tested on: patients with heart failure; details: intravenous infusion, hemodynamic monitoring; cited from earlier work
[4] = control mice, 50 μg/kg/d s.c. infusion, 12 weeks, mean ± SEM
[5] = mice with diastolic dysfunction, 50 μg/kg/d s.c. infusion, 12 weeks, mean ± SEM

CC[C@H](C)[C@@H]1NC(=O)[C@H](C)NC(=O)[C@H]([C@@H](C)CC)NC(=O)[C@H](CCC(N)=O)NC(=O)[C@H](C)NC(=O)[C@H](CCCNC(=N)N)NC(=O)[C@H](C(C)C)NC(=O)[C@H](CC(C)C)NC(=O)[C@H](CCC(=O)O)NC(=O)[C@H](CCCNC(=N)N)NC(=O)CNC(=O)[C@@H](NC(=O)[C@H](CC(C)C)NC(=O)[C@H](CCCCN)NC(=O)[C@@H](NC(=O)[C@@H](NC(=O)[C@H](CCC(=O)O)NC(=O)[C@H](CCC(=O)O)NC(=O)[C@H](CCSC)NC(=O)[C@H](Cc2c[nH]c3ccccc23)NC(=O)[C@@H](N)CO)C(C)C)[C@@H](C)CC)CSSC[C@@H]2NC(=O)[C@@H](NC(=O)[C@H](CCCCN)NC(=O)[C@H](CC(N)=O)NC(=O)[C@H](C)NC(=O)[C@H](CC(C)C)NC(=O)[C@H](C)NC(=O)[C@H](CO)NC(=O)[C@H](Cc3ccc(O)cc3)NC(=O)[C@H](CC(C)C)NC(=O)[C@@H]3CCC(=O)N3)CSSC[C@H](NC(=O)CNC(=O)[C@H](C(C)C)NC(=O)[C@H](Cc3c[nH]cn3)NC2=O)C(=O)N[C@@H]([C@@H](C)O)C(=O)N[C@@H](CCCCN)C(=O)N[C@@H](CCCNC(=N)N)C(=O)N[C@@H](CO)C(=O)N[C@@H](CC(C)C)C(=O)N[C@@H](C)C(=O)N[C@@H](CCCNC(=N)N)C(=O)N[C@@H](Cc2ccccc2)C(=O)N[C@H](C(=O)O)CSSC[C@@H](C(=O)NCC(=O)N[C@@H](CCSC)C(=O)N[C@@H](CO)C(=O)N[C@H](C(=O)N[C@@H](Cc2c[nH]c3ccccc23)C(=O)N[C@@H](CO)C(=O)O)[C@@H](C)O)NC1=O [-Asp-shRlx]
biological activity of the by-product [1]: biologically fully active

porcine relaxin (Relaxin B chain QSTNDFIKACGRELVRLWVEICGSVSWGRTAL; Relaxin A chain RMTLSEKCCQVGCIRKDIARLC; not fully specified; ends and bridges not checked; UniProt P01348 25-56; P01348 161-182, looked up) [isolated porcine relaxin, released continuously from an implanted membrane capsule]
E/A ratio [2, 4]: 2.4 ± 0.2
LVEDP, left ventricular end-diastolic pressure [2, 4]: 5.2 ± 0.5 mm Hg
LVSP, left ventricular systolic pressure [2, 4]: 109 ± 10 mm Hg
effect on heart function in controls ([2]; control mice, in words): no pharmaceutical effects were noted
E/A ratio ([2]; mice with diastolic dysfunction, 50 μg/kg/d s.c. over 12 weeks, in words): improved; also recorded: dramatically shifted back to the normal range
E/A ratio [2, 5]: 2.0 ± 0.2
LVEDP, left ventricular end-diastolic pressure [2, 5]: 7.0 ± 0.6 mm Hg
LVSP, left ventricular systolic pressure [2, 5]: 111 ± 12 mm Hg
end-diastolic pressure ([2]; mice, 50 μg/kg/d s.c. over 12 weeks, in words): decreased

recombinant human relaxin-2 [rhRlx]
cardiac index [3]: trends toward increases
pulmonary wedge pressure [3]: decreases
